The numbers were not newly measured in publication PMC10879402, “Comparative Study of Dermal Pharmacokinetics Between Topical Drugs Using Open Flow Microperfusion in a Pig Model” (Pharmaceutical Research, 2023), which cites them from elsewhere.

On the set-up of data set [1]: method as in ref 64 (a number printed in a supplementary file, which may have a reference list of its own: not looked up in the article's list). The settings on record: topical brepocitinib 0.1%, 0.3%, 1% and 3%.
Details of data set [2]: method as in ref 52 (PF-06263276), ref 51 (PF-06763809). The note with it: formulation used in this study (PF-06263276 4% solution, PF-06763809 2.3%); ref 52 (PF-06263276), ref 51 (PF-06763809).
On the set-up of data set [3]: method as in PMID 32949620. The settings on record: topical application of a […] cream formulation.

The structures appear in SMILES notation.

Turning to `Cn1cc(Nc2nccc(N3C[C@H]4CC[C@@H](C3)N4C(=O)[C@@H]3CC3(F)F)n2)cn1` [brepocitinib], the “outcome in psoriasis clinical study” value in data set [1] is “did not meet the primary and secondary endpoints”. For the molecule `CCc1cc(O)c(F)cc1-c1ccc2c(-c3nc4c([nH]3)CCN(C(=O)c3cnc(N5CCCCC5)cn3)C4)n[nH]c2c1` [PF-06263276], the “efficacy in human psoriasis plaque test” value in data set [2] is given as “no efficacy”. As to `N#CC[C@H](C1CCCC1)n1cc(-c2ncnc3[nH]ccc23)cn1` [ruxolitinib], in data set [3], the “dermal ruxolitinib concentration (total)” value was 63 µM and the “dermal ruxolitinib concentration (unbound)” value was 12 µM.
